In patent US10975056B2 (GlaxoSmithKline Intellectual Property Development Limited, priority 2016, dated 2021):
Several values for one entry are separate records, joined by “and”; a condition that tells them apart may be missing. Identical values can stand only once. Counter-ions that a name gives are not always drawn. Like-named read-outs stand apart in the source and are kept apart here.

Columns and labels:
[1] = test system: erythroid progenitor cells (EPCs); assay: Fetal hemoglobin (HbF) ELISA in day 7 erythroid progenitor cells; type: cell-based, human; conditions: Homo sapiens, Erythroid progenitor cell, HbF ELISA, day 7 EPCs, 5 days; read-out: EPC ELISA (pEC50 category) (converted);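 also: for fetal hemoglobin induction normalized to vehicle-treated cells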
Outline: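 HbF induction was read by anti-HbF sandwich ELISA (HRP/TMB, OD450) on lysates and normalized to vehicle-treated cells. Cells were day 7 erythroid progenitors derived from human bone marrow CD34+ cells, seeded at 1,000/well with 3 U/mL rhEPO. Compound was given for 5 days at 37 °C at final concentrations […].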

DNMT1 = DNMT1 (Homo sapiens, UniProt P26358); assay: DNMT1 biochemical activity, breaklight assay and/or SPA assay
Chain of DNMT1 (P26358 whole entry, looked up): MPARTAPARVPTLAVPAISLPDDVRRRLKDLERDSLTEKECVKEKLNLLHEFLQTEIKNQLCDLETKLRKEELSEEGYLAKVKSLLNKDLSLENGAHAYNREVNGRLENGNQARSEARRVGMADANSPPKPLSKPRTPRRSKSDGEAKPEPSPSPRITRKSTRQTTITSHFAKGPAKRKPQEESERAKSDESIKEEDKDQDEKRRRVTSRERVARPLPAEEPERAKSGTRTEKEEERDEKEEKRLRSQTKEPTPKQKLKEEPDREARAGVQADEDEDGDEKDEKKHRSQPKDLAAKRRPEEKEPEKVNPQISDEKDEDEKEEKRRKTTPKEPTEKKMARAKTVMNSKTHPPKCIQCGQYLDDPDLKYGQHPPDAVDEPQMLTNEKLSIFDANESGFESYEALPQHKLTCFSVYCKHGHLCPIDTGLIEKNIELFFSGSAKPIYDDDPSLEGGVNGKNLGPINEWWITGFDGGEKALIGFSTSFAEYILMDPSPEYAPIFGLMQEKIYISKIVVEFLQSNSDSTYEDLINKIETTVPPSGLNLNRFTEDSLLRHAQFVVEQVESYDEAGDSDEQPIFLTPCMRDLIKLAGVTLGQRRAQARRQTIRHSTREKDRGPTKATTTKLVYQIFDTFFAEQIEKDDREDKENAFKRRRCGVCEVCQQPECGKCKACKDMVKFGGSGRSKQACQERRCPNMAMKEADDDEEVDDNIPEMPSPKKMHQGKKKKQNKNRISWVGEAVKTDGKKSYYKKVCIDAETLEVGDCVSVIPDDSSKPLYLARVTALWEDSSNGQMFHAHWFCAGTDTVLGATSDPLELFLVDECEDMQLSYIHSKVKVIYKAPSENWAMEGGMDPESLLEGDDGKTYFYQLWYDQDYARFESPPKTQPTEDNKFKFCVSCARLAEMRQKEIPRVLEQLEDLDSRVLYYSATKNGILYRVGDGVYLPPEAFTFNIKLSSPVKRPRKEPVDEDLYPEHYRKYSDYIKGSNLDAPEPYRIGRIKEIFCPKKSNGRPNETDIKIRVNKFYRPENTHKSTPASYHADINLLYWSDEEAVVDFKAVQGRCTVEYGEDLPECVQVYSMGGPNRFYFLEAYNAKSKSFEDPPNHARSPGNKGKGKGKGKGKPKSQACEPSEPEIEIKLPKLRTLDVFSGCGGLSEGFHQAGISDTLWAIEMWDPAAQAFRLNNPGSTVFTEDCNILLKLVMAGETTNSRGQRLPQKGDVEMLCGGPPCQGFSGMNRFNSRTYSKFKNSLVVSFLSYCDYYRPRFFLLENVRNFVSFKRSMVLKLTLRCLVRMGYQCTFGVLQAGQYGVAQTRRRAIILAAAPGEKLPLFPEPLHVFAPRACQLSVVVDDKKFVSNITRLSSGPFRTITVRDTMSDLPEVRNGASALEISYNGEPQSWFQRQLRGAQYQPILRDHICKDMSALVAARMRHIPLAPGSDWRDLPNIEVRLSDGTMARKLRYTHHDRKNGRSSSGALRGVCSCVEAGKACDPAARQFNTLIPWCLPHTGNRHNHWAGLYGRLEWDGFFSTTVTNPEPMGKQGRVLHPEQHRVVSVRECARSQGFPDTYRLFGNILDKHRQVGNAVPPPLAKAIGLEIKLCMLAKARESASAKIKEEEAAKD

[2] = binned activity in either the breaklight or the SPA assay, read-out: DNMT1 BioChemical (pIC50 category) (converted)
[3] = breaklight assay and/or SPA assay, repeated experimental runs, read-out: average pIC50 against DNMT1 (converted)
[4] = binned activity in either the breaklight or the SPA assay

| EC50 [1] | IC50 (DNMT1; [2]) | IC50 (DNMT1; [3]) | DNMT1 BioChemical (pIC50 category) (DNMT1; [4]) | average pIC50 against DNMT1 (DNMT1; breaklight assay and/or SPA assay, repeated experimental runs) | Structure (SMILES) |
| --- | --- | --- | --- | --- | --- |
| 1 to 31.6 µM | 0.316 to 1 µM |  |  |  | CCc1c(C#N)c(SC(C(N)=O)c2ccccc2)nc(N2CCN(Cc3cnc[nH]3)CC2)c1C#N (stereo not shown) [Example 188, 2-((6-(4-((1H-lmidazol-5-yl)methyl)piperazin-1-yl)-3,5-dicyano-4-ethylpyridin-2-yl)thio)-2-phenylacetamide] |
| 0.316 to 1 µM | 0.316 to 1 µM |  |  |  | CCc1c(C#N)c(SC(C(N)=O)c2ccccc2)nc(N2CCN(C(C)(C)CO)CC2)c1C#N (stereo not shown) [Example 189] |
| 0.316 to 1 µM |  |  | D (Category D: ≥6.5) |  | COc1c(C#N)c(SC(C(N)=O)c2ccccc2)nc(N(C)C)c1C#N (stereo not shown) [Example 191, 2-((3,5-Dicyano-6-(dimethylamino)-4-methoxypyridin-2-yl)thio)-2-phenylacetamide] |
| 1 to 31.6 µM |  |  | D (Category D: ≥6.5) |  | CCOc1c(C#N)c(SC(C(N)=O)c2ccccc2)nc(N(C)C)c1C#N (stereo not shown) [Example 192, 2-((3,5-Dicyano-6-(dimethylamino)-4-ethoxypyridin-2-yl)thio)-2-phenylacetamide] |
| 0.316 to 1 µM |  |  | D (Category D: ≥6.5) |  | CCOc1c(C#N)c(SC(C(N)=O)c2ccccc2)nc(N2CCCN(CCO)CC2)c1C#N (stereo not shown) [Example 193] |
| < 0.316 µM | 0.316 to 1 µM |  |  |  | CCc1c(C#N)c(SC(C(N)=O)c2ccccc2)nc(N2CCCN(CC(C)(C)O)CC2)c1C#N (stereo not shown) [Example 194, 2-((3,5-Dicyano-4-ethyl-6-(4-(2-hydroxy-2-methylpropyl)-1,4-diazepan-1-yl)pyridin-2-yl)thio)-2-phenylacetamide] |
| 0.316 to 1 µM | 0.316 to 1 µM |  |  |  | CCc1c(C#N)c(SC(C(N)=O)c2ccccc2)nc(N2CCN(Cc3cncs3)CC2)c1C#N (stereo not shown) [Example 195, 2-((3,5-Dicyano-4-ethyl-6-(4-(thiazol-5-ylmethyl)piperazin-1-yl)pyridin-2-yl)thio)-2-phenylacetamide] |
| 0.316 to 1 µM | 0.316 to 1 µM |  |  |  | CCc1c(C#N)c(SC(C(N)=O)c2ccccc2)nc(N2CCN(Cc3cnsc3)CC2)c1C#N (stereo not shown) [Example 197, 2-((3,5-Dicyano-4-ethyl-6-(4-(isothiazol-4-ylmethyl)piperazin-1-yl)pyridin-2-yl)thio)-2-phenylacetamide] |
| 0.316 to 1 µM |  |  | D (Category D: ≥6.5) |  | CCc1c(C#N)c(SC(C(N)=O)c2ccc(F)cc2)nc(N(C)C)c1C#N (stereo not shown) [Example 198, 2-((3,5-Dicyano-6-(dimethylamino)-4-ethylpyridin-2-yl)thio)-2-(4-fluorophenyl)acetamide] |
| > 31.6 µM |  |  | D (Category D: ≥6.5) |  | CCc1c(C#N)c(SC(C(N)=O)c2ccc(F)cn2)nc(N(C)C)c1C#N (stereo not shown) [Example 199] |

Second part, the molecule before the results:

| Structure (SMILES) | EC50 [1] | IC50 (DNMT1; [2]) | IC50 (DNMT1; [3]) | DNMT1 BioChemical (pIC50 category) (DNMT1; [4]) | average pIC50 against DNMT1 (DNMT1; breaklight assay and/or SPA assay, repeated experimental runs) |
| --- | --- | --- | --- | --- | --- |
| CCc1c(C#N)c(N[C@@H](C(N)=O)c2ccccc2)nc(N2CCCN(CCCN3CCCC3)CC2)c1C#N [Example 163, (R)-2-((3,5-Dicyano-4-ethyl-6-(4-(3-(pyrrolidin-1-yl)propyl)-1,4-diazepan-1-yl)pyridin-2-yl)amino)-2-phenylacetamide] | > 31.6 µM | 1 to 31.6 µM |  |  |  |
| CCc1c(Cl)c(SC(C(N)=O)c2ccccc2)nc(N2CCCN(C)CC2)c1Cl (stereo not shown) [Example 165] | > 31.6 µM | 0.316 to 1 µM | 0.316 to 1 µM and 0.631 µM |  |  |
| CCc1c(C#N)c(SC(C(N)=O)c2ccccc2)nc(N2CCS(=O)(=O)CC2)c1C#N (stereo not shown) [Example 166, 2-((3,5-Dicyano-6-(1,1-dioxidothiomorpholino)-4-ethylpyridin-2-yl)thio)-2-phenylacetamide] | < 0.316 µM | 0.316 to 1 µM |  |  |  |
| CCc1c(C#N)c(SC(C(N)=O)c2ccccc2)nc(N(C)CCN2CCNCC2)c1C#N (stereo not shown) [Example 167, 2-((3,5-Dicyano-4-ethyl-6-(methyl(2-(piperazin-1-yl)ethyl)amino)pyridin-2-yl)thio)-2-phenylacetamide] | < 0.316 µM |  |  | D (Category D: ≥6.5) |  |
| CCc1c(C#N)c(S[C@@H](C(N)=O)c2ccccc2)nc(N2CC[C@H](O)C2)c1C#N [Example 168, (R)-2-((3,5-Dicyano-4-ethyl-6-((S)-3-hydroxypyrrolidin-1-yl)pyridin-2-yl)thio)-2-phenylacetamide] | 0.316 to 1 µM |  | 0.2 µM | D (Category D: ≥6.5) | > 6.5 |
| CCc1c(C#N)c(SC(C(N)=O)c2ccccc2)nc(N(C)CCN2CCC(O)(CN)CC2)c1C#N (stereo not shown) [Example 170, 2-((6-((2-(4-(Aminomethyl)-4-hydroxypiperidin-1-yl)ethyl)(methyl)amino)-3,5-dicyano-4-ethylpyridin-2-yl)thio)-2-phenylacetamide] | 1 to 31.6 µM |  |  | D (Category D: ≥6.5) |  |
| N#Cc1c(N2CCCNCC2)nc(SC(C(N)=O)c2ccccc2)c2c1CCC2 (stereo not shown) [Example 171, 2-((4-Cyano-3-(1,4-diazepan-1-yl)-6,7-dihydro-5H-cyclopenta[c]pyridin-1-yl)thio)-2-phenylacetamide] | > 31.6 µM | 0.316 to 1 µM |  |  |  |
| CCc1c(C#N)c(SC(C(N)=O)c2ccccc2)nc(N2CCC(n3ccnc3)CC2)c1C#N (stereo not shown) [Example 172, 2-((6-(4-(1H-Imidazol-1-yl)piperidin-1-yl)-3,5-dicyano-4-ethylpyridin-2-yl)thio)-2-phenylacetamide] | < 0.316 µM | 1 to 31.6 µM |  |  |  |
| CCc1c(C#N)c(SC(C(N)=O)c2ccccc2)nc(N2CCN(Cc3ccncc3)CC2)c1C#N (stereo not shown) [Example 173, 2-((3,5-Dicyano-4-ethyl-6-(4-(pyridin-4-ylmethyl)piperazin-1-yl)pyridin-2-yl)thio)-2-phenylacetamide] | 0.316 to 1 µM | 0.316 to 1 µM |  |  |  |
| CCc1c(C#N)c(OCCN(C)C)nc(SC(C(N)=O)c2ccccc2)c1C#N (stereo not shown) [Example 174, 2-((3,5-Dicyano-6-(2-(dimethylamino)ethoxy)-4-ethylpyridin-2-yl)thio)-2-phenylacetamide] | 0.316 to 1 µM | 0.316 to 1 µM |  |  |  |
| N#Cc1c(SC(C(N)=O)c2ccccc2)nc(N2CCCC(NCC(=O)O)C2)c(C#N)c1C1CC1 (stereo not shown) [Example 175, 2-((1-(6-((2-Amino-2-oxo-1-phenylethyl)thio)-3,5-dicyano-4-cyclopropvlpyridin-2-yl)piperidin-3-yl)amino)acetic acid] | > 31.6 µM | 0.316 to 1 µM |  |  |  |
| CCc1c(C#N)c(SC(C(N)=O)c2ccccc2)nc(N2CCN(Cc3ncco3)CC2)c1C#N (stereo not shown) [Example 176, 2-((3,5-Dicyano-4-ethyl-6-(4-(oxazol-2-ylmethyl)piperazin-1-yl)pyridin-2-yl)thio)-2-phenylacetamide] | 0.316 to 1 µM | 0.316 to 1 µM |  |  |  |
| CCc1c(C#N)c(SC(C(N)=O)c2ccccc2)nc(N2CCN(Cc3ccc[nH]3)CC2)c1C#N (stereo not shown) [Example 177, 2-((6-(4-((1H-Pyrrol-2-yl)methyl)piperazin-1-yl)-3,5-dicyano-4-ethylpyridin-2-yl)thio)-2-phenylacetamide] | 1 to 31.6 µM | 0.316 to 1 µM |  |  |  |
| CCc1c(C#N)c(SC(C(N)=O)c2ccccc2)nc(N2CCc3ccncc3C2)c1C#N (stereo not shown) [Example 178, 2-((3,5-Dicyano-6-(3,4-dihydro-2,7-naphthyridin-2 (1H)-yl)-4-ethylpyridin-2-yl)thio)-2-phenylacetamide] | 1 to 31.6 µM |  |  | D (Category D: ≥6.5) |  |
| CCc1c(C#N)c(SC(C(N)=O)c2cccnc2)nc(N2CC[C@H](O)C2)c1C#N (stereo partly drawn) [Example 181, 2-((3,5-Dicyano-4-ethyl-6-((S)-3-hydroxypyrrolidin-1-yl)pyridin-2-yl)thio)-2-(pyridin-3-yl)acetamide] | 1 to 31.6 µM | 0.316 to 1 µM |  |  |  |
| CCc1c(C#N)c(SC(C(N)=O)c2ccccc2)nc(N2CCN(Cc3cc[nH]c3)CC2)c1C#N (stereo not shown) [Example 182, 2-((6-(4-((1H-Pyrrol-3-yl)methyl)piperazin-1-yl)-3,5-dicyano-4-ethylpyridin-2-yl)thio)-2-phenylacetamide] | 0.316 to 1 µM | 0.316 to 1 µM |  |  |  |
| CCc1c(C#N)c(SC(C(N)=O)c2ccccc2)nc(N2CCN(Cc3ccon3)CC2)c1C#N (stereo not shown) [Example 183, 2-((3,5-Dicyano-4-ethyl-6-(4-(isoxazol-3-ylmethyl)piperazin-1-yl)pyridin-2-yl)thio)-2-phenylacetamide] | 1 to 31.6 µM | 0.316 to 1 µM |  |  |  |
| CCc1c(C#N)c(SC(C(N)=O)c2ccccc2)nc(N2CCN(Cc3cnco3)CC2)c1C#N (stereo not shown) [Example 184, 2-((3,5-Dicyano-4-ethyl-6-(4-(oxazol-5-ylmethyl)piperazin-1-yl)pyridin-2-yl)thio)-2-phenylacetamide] | 0.316 to 1 µM | 0.316 to 1 µM |  |  |  |
| CCc1c(C#N)c(SC(C(N)=O)c2ccccc2)nc(N2CCN(Cc3cnoc3)CC2)c1C#N (stereo not shown) [Example 185] | 0.316 to 1 µM | 0.316 to 1 µM |  |  |  |
| CCc1c(C#N)c(SC(C(N)=O)c2ccccc2)nc(N2CCC(NC(=O)C3(N)COC3)CC2)c1C#N (stereo not shown) [Example 186, 3-Amino-N-(1-(6-((2-amino-2-oxo-1-phenylethyl)thio)-3,5-dicyano-4-ethylpyridin-2-yl)piperidin-4-yl)oxetane-3-carboxamide] | 1 to 31.6 µM |  |  | D (Category D: ≥6.5) |  |
| CCc1c(C#N)c(SC(C(N)=O)c2ccccc2)nc(N2CCN(Cc3cn[nH]c3)CC2)c1C#N (stereo not shown) [Example 187, 2-((6-(4-((1H-Pyrazol-4-yl)methyl)piperazin-1-yl)-3,5-dicyano-4-ethylpyridin-2-yl)thio)-2-phenylacetamide] | 1 to 31.6 µM | 0.316 to 1 µM |  |  |  |
| CCc1c(C#N)c(SC(C(N)=O)c2ccc(F)cc2)nc(N2CCNCC2)c1C#N (stereo not shown) [Example 196, 2-((3,5-Dicyano-4-ethyl-6-(piperazin-1-yl)pyridin-2-yl)thio)-2-(4-fluorophenyl)acetamide, Trifluoroacetic Acid Salt] | < 0.316 µM |  |  | D (Category D: ≥6.5) |  |
